Measurements published in PubChem BioAssay (NCI).
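Step 1: Grow cells in 96-well plates. Step 2: Expose to compound for 48 hours at 5 concentrations. Step 3: Interpolate endpoints linearly; if unreached, use highest concentration. TGI marks complete inhibition of growth.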

Key:
Assay in all cases: NCI tumour cell line growth inhibition, 48 h
[1] = system: 786-0 renal
[2] = system: A498 renal
[3] = system: A549 NSCLC
[4] = system: ACHN renal
[5] = system: CAKI-1 renal
[6] = system: CCRF-CEM leukemia
[7] = system: COLO 205 colon
[8] = system: DLD-1 colon
[9] = system: DMS 114 small cell lung
[10] = system: DMS 273 small cell lung
[11] = system: EKVX NSCLC
[12] = system: HCC-2998 colon
[13] = system: HCT-116 colon
[14] = system: HCT-15 colon
[15] = system: HL-60(TB) leukemia
[16] = system: HOP-62 NSCLC
[17] = system: HT29 colon
[18] = system: IGROV1 ovarian
[19] = system: K-562 leukemia
[20] = system: KM12 colon
[21] = system: KM20L2 colon
[22] = system: LOX IMVI melanoma
[23] = system: M14 melanoma
[24] = system: M19-MEL melanoma
[25] = system: MALME-3M melanoma
[26] = system: MOLT-4 leukemia
[27] = system: NCI-H226 lung
[28] = system: NCI-H23 lung
[29] = system: NCI-H460 lung
[30] = system: NCI-H522 lung
[31] = system: OVCAR-3 ovarian
[32] = system: OVCAR-5 ovarian
[33] = system: OVCAR-8 ovarian
[34] = system: RPMI-8226 leukemia
[35] = system: RXF 393 renal
[36] = system: SF-268 CNS
[37] = system: SF-295 CNS
[38] = system: SF-539 CNS
[39] = system: SK-MEL-2 melanoma
[40] = system: SK-MEL-28 melanoma
[41] = system: SK-MEL-5 melanoma
[42] = system: SK-OV-3 ovarian
[43] = system: SN12C renal
[44] = system: SNB-19 CNS
[45] = system: SNB-75 CNS
[46] = system: SNB-78 CNS
[47] = system: SW-620 colon
[48] = system: TK-10 renal
[49] = system: U251 CNS
[50] = system: UACC-257 melanoma
[51] = system: UACC-62 melanoma
[52] = system: UO-31 renal
[53] = system: XF 498 CNS
[54] = system: HOP-92 NSCLC
[55] = system: LXFL 529 NSCLC
[56] = system: OVCAR-4 ovarian
[57] = system: SR leukemia

SMILES: CC12CC(=O)NN=C1c1ccccc1C2 (configuration not stated)
- TGI [1]: > 100 µM
- TGI [2]: > 100 µM
- TGI [3]: > 100 µM
- TGI [4]: > 100 µM
- TGI [5]: > 100 µM
- TGI [6]: > 100 µM
- TGI [7]: > 100 µM
- TGI [8]: > 100 µM
- TGI [9]: > 100 µM
- TGI [10]: > 100 µM
- TGI [11]: > 100 µM
- TGI [12]: > 100 µM
- TGI [13]: > 100 µM
- TGI [14]: > 100 µM
- TGI [15]: > 100 µM
- TGI [16]: > 100 µM
- TGI [17]: > 100 µM
- TGI [18]: > 100 µM
- TGI [19]: > 100 µM
- TGI [20]: > 100 µM
- TGI [21]: > 100 µM
- TGI [22]: > 100 µM
- TGI [23]: > 100 µM
- TGI [24]: > 100 µM
- TGI [25]: > 100 µM
- TGI [26]: > 100 µM
- TGI [27]: > 100 µM
- TGI [28]: > 100 µM
- TGI [29]: > 100 µM
- TGI [30]: > 100 µM
- TGI [31]: > 100 µM
- TGI [32]: > 100 µM
- TGI [33]: > 100 µM
- TGI [34]: > 100 µM
- TGI [35]: > 100 µM
- TGI [36]: > 100 µM
- TGI [37]: > 100 µM
- TGI [38]: > 100 µM
- TGI [39]: > 100 µM
- TGI [40]: > 100 µM
- TGI [41]: > 100 µM
- TGI [42]: > 100 µM
- TGI [43]: > 100 µM
- TGI [44]: > 100 µM
- TGI [45]: > 100 µM
- TGI [46]: > 100 µM
- TGI [47]: > 100 µM
- TGI [48]: > 100 µM
- TGI [49]: > 100 µM
- TGI [50]: > 100 µM
- TGI [51]: > 100 µM
- TGI [52]: > 100 µM
- TGI [53]: > 100 µM

SMILES: CC(C)S(=O)(=O)n1c(N)nc2ccc(/C(=N/O)c3ccccc3)cc21
- TGI [1]: > 100 µM
- TGI [2]: 31.7 µM
- TGI [3]: 49.3 µM
- TGI [4]: 57.8 µM
- TGI [5]: 76.9 µM
- TGI [6]: 57.2 µM
- TGI [7]: 33.5 µM
- TGI [8]: > 100 µM
- TGI [9]: 43.8 µM
- TGI [10]: > 100 µM
- TGI [11]: 59.1 µM
- TGI [12]: 53.2 µM
- TGI [13]: 40.2 µM
- TGI [14]: 79.3 µM
- TGI [15]: 44.3 µM
- TGI [16]: 40.8 µM
- TGI [54]: 41.1 µM
- TGI [17]: 36.8 µM
- TGI [18]: 48 µM
- TGI [19]: > 100 µM
- TGI [20]: 45.8 µM
- TGI [21]: 31.8 µM
- TGI [55]: > 100 µM
- TGI [23]: 65.9 µM
- TGI [24]: > 100 µM
- TGI [25]: > 100 µM
- TGI [26]: 52.2 µM
- TGI [27]: 23.4 µM
- TGI [28]: 60.8 µM
- TGI [29]: > 100 µM
- TGI [30]: 35.2 µM
- TGI [31]: 50.6 µM
- TGI [56]: > 100 µM
- TGI [32]: 58.7 µM
- TGI [33]: > 100 µM
- TGI [34]: 31.8 µM
- TGI [35]: 45.5 µM
- TGI [36]: > 100 µM
- TGI [37]: > 100 µM
- TGI [38]: 49.6 µM
- TGI [39]: 54.1 µM
- TGI [40]: > 100 µM
- TGI [42]: 83 µM
- TGI [43]: > 100 µM
- TGI [44]: > 100 µM
- TGI [45]: 47.7 µM
- TGI [46]: > 100 µM
- TGI [57]: 27.2 µM
- TGI [47]: 45.3 µM
- TGI [48]: > 100 µM
- TGI [49]: > 100 µM
- TGI [50]: > 100 µM
- TGI [51]: 81.8 µM
- TGI [52]: 47 µM
